Data on nine molecules can be found in patent US11173162B2, “Bicyclic heterocycles as FGFR4 inhibitors” (Incyte Corporation, priority 2015, dated 2021).

One test relates to FGFR3 enzyme. Description: FGFR Enzymatic Assay (FRET peptide phosphorylation), FGFR3. To be noted: IC50 ratio showing FGFR3 selectivity; Table 2A, pre-incubated for 4 hours. In kind it is biochemical. Here is the method:
(§1) The inhibitor potency of the exemplified compounds was measured in an enzyme assay that measures peptide phosphorylation using FRET measurements to detect product formation. Inhibitors were serially diluted in DMSO and a volume of 0.5 μL was transferred to the wells of a 384-well plate.
(§2) GraphPad prism3 was used to analyze the data.

In another test the target is FGFR4 (Homo sapiens (Human), UniProt P22455). Description: FGFR Enzymatic Assay (FRET peptide phosphorylation), FGFR4. It counts as biochemical. On the procedure: as §1
The enzymes were purchased from Millipore or Invitrogen.
as §2

Where [1] appears, read: IC50 ratio showing FGFR4 selectivity, Table 2, pre-incubated for 4 hours.
[2] abbreviates: ratio of IC50 data showing FGFR4 selectivity, Table 4, pre-incubated for 5 to 10 minutes.

Where only a bound is given, the exact number is not on record here.

Sequence of FGFR4 (P22455 22-802): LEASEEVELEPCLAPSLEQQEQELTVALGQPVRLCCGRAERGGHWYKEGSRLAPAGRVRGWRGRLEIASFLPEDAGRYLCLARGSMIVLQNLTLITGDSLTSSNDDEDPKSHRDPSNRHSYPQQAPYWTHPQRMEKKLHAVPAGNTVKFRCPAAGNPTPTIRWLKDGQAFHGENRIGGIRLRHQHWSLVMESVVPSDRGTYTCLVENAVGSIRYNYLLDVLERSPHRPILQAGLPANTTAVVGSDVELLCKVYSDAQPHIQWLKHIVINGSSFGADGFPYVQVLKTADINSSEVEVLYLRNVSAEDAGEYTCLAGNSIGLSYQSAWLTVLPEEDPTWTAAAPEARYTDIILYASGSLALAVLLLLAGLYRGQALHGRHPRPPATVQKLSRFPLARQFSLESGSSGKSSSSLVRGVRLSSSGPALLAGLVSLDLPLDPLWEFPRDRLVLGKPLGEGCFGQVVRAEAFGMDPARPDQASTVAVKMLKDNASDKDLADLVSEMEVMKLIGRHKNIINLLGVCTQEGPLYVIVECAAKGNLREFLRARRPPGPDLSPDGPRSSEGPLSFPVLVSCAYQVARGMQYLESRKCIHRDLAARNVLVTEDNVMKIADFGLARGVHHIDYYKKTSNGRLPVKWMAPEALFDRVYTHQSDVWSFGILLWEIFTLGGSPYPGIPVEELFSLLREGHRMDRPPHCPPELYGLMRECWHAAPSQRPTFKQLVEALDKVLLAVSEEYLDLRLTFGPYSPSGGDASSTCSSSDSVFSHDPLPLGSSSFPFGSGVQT

For `COc1cc(OC)c(F)c(N2Cc3cnc(-c4cncc(C#N)c4)cc3C3(CC3)C2=O)c1F` [Example 8, 5-(2′-(2,6-difluoro-3,5-dimethoxyphenyl)-3′-oxo-2′,3′-dihydro-1′H-spiro[cyclopropane-1,4′-[2,7]naphthyridine]-6′-yl)nicotinonitrile], in the test with FGFR3 enzyme, the FGFR1/FGFR3 is given as more than 5. In addition, on FGFR4 (setting [1]), the FGFR1/FGFR4 is on record as more than 50, the FGFR2/FGFR4 is recorded as more than 10 and the FGFR3/FGFR4 was more than 10. For the same molecule, at FGFR4 (setting [2]), the FGFR1/FGFR4 is given as more than 50, the FGFR2/FGFR4 was more than 10 and the FGFR3/FGFR4 is on record as more than 10.

As to `COc1cc(OC)c(F)c(N2Cc3cnc(-c4cccnc4)cc3C3(CC3)C2=O)c1F` [Example 9, 2′-(2,6-difluoro-3,5-dimethoxyphenyl)-6′-(pyridin-3-yl)-1′H-spiro[cyclopropane-1,4′-[2,7]naphthyridin]-3′(2′H)-one], the FGFR1/FGFR3 in the test with FGFR3 enzyme is on record as more than 3. Also, on FGFR4 (setting [1]), the FGFR1/FGFR4 is more than 10, the FGFR2/FGFR4 is listed as more than 1 and the FGFR3/FGFR4 is given as more than 1. Also, at FGFR4 (setting [2]), the FGFR1/FGFR4 was more than 5, the FGFR2/FGFR4 is reported as more than 1 and the FGFR3/FGFR4 is reported as more than 1.

As for `COc1cncc(-c2cc3c(cn2)CN(c2c(F)c(OC)cc(OC)c2F)C(=O)C32CC2)c1` [Example 10, 2′-(2,6-difluoro-3,5-dimethoxyphenyl)-6′-(5-methoxypyridin-3-yl)-1′H-spiro[cyclopropane-1,4′-[2,7]naphthyridin]-3′(2′H)-one], the FGFR1/FGFR3 with FGFR3 enzyme is listed as more than 1. Moreover, at FGFR4 (setting [1]), the FGFR1/FGFR4 is listed as more than 25, the FGFR2/FGFR4 was more than 25 and the FGFR3/FGFR4 is listed as more than 10. For the same molecule, on FGFR4 (setting [2]), the FGFR1/FGFR4 is recorded as more than 25, the FGFR2/FGFR4 is given as more than 10 and the FGFR3/FGFR4 is listed as more than 10.

In the case of `COc1cc(OC)c(F)c(N2Cc3cnc(-c4cncc(Cl)c4)cc3C3(CC3)C2=O)c1F` [Example 11, 6′-(5-chloropyridin-3-yl)-2′-(2,6-difluoro-3,5-dimethoxyphenyl)-1′H-spiro[cyclopropane-1,4′-[2,7]naphthyridin]-3′(2′H)-one], the FGFR1/FGFR3 in the test with FGFR3 enzyme was more than 1. Moreover, on FGFR4 (setting [1]), the FGFR1/FGFR4 was more than 25, the FGFR2/FGFR4 is given as more than 25 and the FGFR3/FGFR4 is recorded as more than 10. Moreover, on FGFR4 (setting [2]), the FGFR1/FGFR4 is more than 50, the FGFR2/FGFR4 is reported as more than 20 and the FGFR3/FGFR4 is more than 25.

As to `COc1cc(OC)c(F)c(N2Cc3cnc(-c4cncc(-n5ccnc5)c4)cc3C3(CC3)C2=O)c1F` [Example 12, 6′-(5-(1H-imidazol-1-yl)pyridin-3-yl)-2′-(2,6-difluoro-3,5-dimethoxyphenyl)-1′H-spiro[cyclopropane-1,4′-[2,7]naphthyridin]-3′(2′H)-one], in the test with FGFR3 enzyme, the FGFR1/FGFR3 is more than 3. On FGFR4 (setting [1]), the FGFR1/FGFR4 is given as more than 50, the FGFR2/FGFR4 was more than 25 and the FGFR3/FGFR4 is reported as more than 10. Besides, at FGFR4 (setting [2]), the FGFR1/FGFR4 is listed as more than 50, the FGFR2/FGFR4 was more than 25 and the FGFR3/FGFR4 is on record as more than 20.

As for `COc1cc(OC)c(F)c(N2Cc3cnc(-c4cncc(C(=O)N5CCOCC5)c4)cc3C3(CC3)C2=O)c1F` [Example 13, 2′-(2,6-difluoro-3,5-dimethoxyphenyl)-6′-(5-(morpholine-4-carbonyl)pyridin-3-yl)-1′H-spiro[cyclopropane-1,4′-[2,7]naphthyridin]-3′(2′H)-one], the FGFR1/FGFR3 in the test with FGFR3 enzyme is on record as more than 3. Further, at FGFR4 (setting [1]), the FGFR1/FGFR4 is more than 50, the FGFR2/FGFR4 is more than 25 and the FGFR3/FGFR4 is on record as more than 10. Moreover, at FGFR4 (setting [2]), the FGFR1/FGFR4 is on record as more than 50, the FGFR2/FGFR4 was more than 20 and the FGFR3/FGFR4 is listed as more than 10.

As for `COc1cc(OC)c(F)c(N2Cc3cnc(-c4cncc(S(=O)(=O)N5CCOCC5)c4)cc3C3(CC3)C2=O)c1F` [Example 14, 2′-(2,6-difluoro-3,5-dimethoxyphenyl)-6′-(5-(morpholinosulfonyl)pyridin-3-yl)-1′H-spiro[cyclopropane-1,4′-[2,7]naphthyridin]-3′(2′H)-one], the FGFR1/FGFR3 in the test with FGFR3 enzyme is on record as more than 5. For the same molecule, at FGFR4 (setting [1]), the FGFR1/FGFR4 is given as more than 50, the FGFR2/FGFR4 is more than 10 and the FGFR3/FGFR4 is listed as more than 1. Besides, at FGFR4 (setting [2]), the FGFR1/FGFR4 is more than 25, the FGFR2/FGFR4 was more than 5 and the FGFR3/FGFR4 is more than 5.

As to `COc1cc(OC)c(F)c(N2Cc3cnc(-c4cncc(NS(C)(=O)=O)c4)cc3C3(CC3)C2=O)c1F` [Example 15, N-(5-(2′-(2,6-difluoro-3,5-dimethoxyphenyl)-3′-oxo-2′,3′-dihydro-1′H-spiro[cyclopropane-1,4′-[2,7]naphthyridine]-6′-yl)pyridin-3-yl)methanesulfonamide], the FGFR1/FGFR3 in the test on FGFR3 enzyme is reported as more than 3. Also, on FGFR4 (setting [1]), the FGFR1/FGFR4 is given as more than 50, the FGFR2/FGFR4 is on record as more than 25 and the FGFR3/FGFR4 is more than 10. In addition, at FGFR4 (setting [2]), the FGFR1/FGFR4 is listed as more than 50, the FGFR2/FGFR4 was more than 25 and the FGFR3/FGFR4 was more than 10.

Consider `COc1cc(OC)c(F)c(N2Cc3cnc(-c4cncc(CN5CCOCC5)c4)cc3C3(CC3)C2=O)c1F` [Example 16, 2′-(2,6-difluoro-3,5-dimethoxyphenyl)-6′-(5-(morpholinomethyl)pyridin-3-yl)-1′H-spiro[cyclopropane-1,4′-[2,7]naphthyridin]-3′(2′H)-one], for which the FGFR1/FGFR3 in the test on FGFR3 enzyme was more than 1. On FGFR4 (setting [1]), the FGFR1/FGFR4 was more than 50, the FGFR2/FGFR4 is given as more than 25 and the FGFR3/FGFR4 is listed as more than 10. For the same molecule, on FGFR4 (setting [2]), the FGFR1/FGFR4 was more than 25, the FGFR2/FGFR4 was more than 10 and the FGFR3/FGFR4 was more than 10.
